Data on 29 compounds can be found in US9452997B2, “Piperidine and piperazine derivatives as autotaxin inhibitors” (Merck Patent GmbH, priority 2009, dated 2016).

pIC50: −log10 of the molar value.

In this assay the target is T1, Recombinant autotaxin (Homo sapiens, UniProt Q13822).
T1 construct: made in house; host or cells: Hi5 insect cells (baculovirus)
The experiment in a line: Autotaxin assay (Amplex Red, LPC substrate). It is filed as biochemical. The following applies: recombinant autotaxin, LPC substrate, Amplex Red detection; values given as upper bounds. In outline:
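Recombinant autotaxin (Hi5 baculovirus, 16 ng) pre-incubated with compound 30 min at 22° C, then reacted with 75 μM egg LPC for 90 min at 37° C. Choline released is coupled to H2O2 and Amplex Red fluorescence (ex 485/em 612 nm). IC50 from ten 1:3 dilutions from 30 μM, duplicates, normalised to 500 μM C14 LPA.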

For `O=C(Cc1ccc(C(F)(F)F)cc1F)N1CCN(C2CCN(C(=O)c3ccc4[nH]nnc4c3)CC2)CC1` [Compound 103, 1-{4-[1-(1H-Benzotriazole-5-carbonyl)-piperidin-4-yl]-piperazin-1-yl}-2-(2-fluoro-4-trifluoromethyl-phenyl)-ethanone], the pIC50 is greater than 4.52.
As to `O=C(CCc1cc(Cl)c(F)c(Cl)c1)N1CCN(C2CCN(C(=O)c3ccc4[nH]nnc4c3)CC2)CC1` [Compound 104, 1-{4-[1-(1H-Benzotriazole-5-carbonyl)-piperidin-4-yl]-piperazin-1-yl}-3-(3,5-dichloro-4-fluoro-phenyl)-propan-1-one], the negative logarithm of the IC50 (pIC50) was greater than 5.00.
With `O=C(CCc1ccc(C(F)(F)F)c(F)c1)N1CCN(C2CCN(C(=O)c3ccc4[nH]nnc4c3)CC2)CC1` [Compound 105, 1-{4-[1-(1H-Benzotriazole-5-carbonyl)-piperidin-4-yl]-piperazin-1-yl}-3-(3-fluoro-4-trifluoromethyl-phenyl)-propan-1-one], the pIC50 was greater than 6.00.
For the compound `Cc1cc(CCC(=O)N2CCN(C3CCN(C(=O)c4ccc5[nH]nnc5c4)CC3)CC2)cc(C)c1F` [Compound 106, 1-{4-[1-(1H-Benzotriazole-5-carbonyl)-piperidin-4-yl]-piperazin-1-yl}-3-(4-fluoro-3,5-dimethyl-phenyl)-propan-1-one], the pIC50 is greater than 5.00.
Consider `O=C(OCc1ccc(C(F)(F)F)cc1)N1CCC(N2CCC(c3ccc4[nH]c(=O)oc4c3)=N2)CC1` [Compound 107, 4-[3-(2-Oxo-2,3-dihydro-benzooxazol-6-yl)-4,5-dihydro-pyrazol-1-yl]-piperidine-1-carboxylic acid 4-trifluoromethyl-benzyl ester], for which the pIC50 is greater than 5.00.
Turning to `O=C(OCc1ccc(C(F)(F)F)cc1)N1CCC(n2ccc(-c3ccc4[nH]c(=O)oc4c3)n2)CC1` [Compound 108], the pIC50 was greater than 5.00.
`O=C(OCc1ccc(C(F)(F)F)cc1)N1CCN(CC2CCN(C(=O)c3ccc4[nH]nnc4c3)CC2)CC1` [Compound 109, 4-[1-(1H-Benzotriazole-5-carbonyl)-piperidin-4-ylmethyl]-piperazine-1-carboxylic acid 4-trifluoromethyl-benzyl ester]: the pIC50 is greater than 5.00.
Take `O=C(Nc1ccc(N2CCN(C(=O)OCc3ccc(C(F)(F)F)cc3)CC2)nc1)c1ccc2[nH]nnc2c1` [Compound 110, 4-{5-[(1H-Benzotriazole-5-carbonyl)-amino]-pyridin-2-yl}-piperazine-1-carboxylic acid 4-trifluoromethyl-benzyl ester]: the negative-log IC50 (pIC50) is greater than 4.52.
The same measure for `O=C(Nc1ccc2[nH]nnc2c1)c1ccc(N2CCN(C(=O)OCc3ccc(C(F)(F)F)cc3)CC2)nc1` [Compound 111, 4-[5-(1H-Benzotriazol-5-ylcarbamoyl)-pyridin-2-yl]-piperazine-1-carboxylic acid 4-trifluoromethyl-benzyl ester]: greater than 5.00.
Regarding `Nc1n[nH]c2ccc(C(=O)N3CCN(C4CCN(C(=O)OCc5ccc(C(F)(F)F)cc5)CC4)CC3)cc12` [Compound 112, 4-[4-(3-Amino-1H-indazole-5-carbonyl)-piperazin-1-yl]-piperidine-1-carboxylic acid 4-trifluoromethyl-benzyl ester], the negative logarithm of the IC50 (pIC50) is greater than 5.00.
Regarding `O=C(OCc1ccc(C(F)(F)F)c(F)c1F)N1CCC(N2CCN(C(=O)c3ccc4[nH]nnc4c3)CC2)CC1` [Compound 113, 4-[1-(1H-Benzotriazole-5-carbonyl)-piperidin-4-yl]-piperazine-1-carboxylic acid 2,3-dilfuoro-4-trifluoromethyl-benzyl ester], the pIC50 was greater than 6.00.
For `O=C(OCc1c(F)c(F)c(C(F)(F)F)c(F)c1F)N1CCN(C2CCN(C(=O)c3ccc4[nH]nnc4c3)CC2)CC1` [Compound 114, 4-[1-(1H-Benzotriazole-5-carbonyl)-piperidin-4-yl]-piperazine-1-carboxylic acid 2,3,5,6-tetrafluoro-4-trifluoromethyl-benzyl ester], the pIC50 was greater than 6.00.
As for `O=C(OCc1cccc(C(F)(F)F)c1)N1CCN(C2CCN(C(=O)c3ccc4[nH]nnc4c3)CC2)CC1` [Compound 115, 4-[1-(1H-Benzotriazole-5-carbonyl)-piperidin-4-yl]-piperaizne-1-carboxylic acid 3-trifluoromethyl-benzyl ester], the pIC50 was greater than 6.00.
The value for `O=C(OCc1cc(F)c(F)c(Cl)c1)N1CCN(C2CCN(C(=O)c3ccc4[nH]nnc4c3)CC2)CC1` [Compound 116, 4-[1-(1H-Benzotriazole-5-carbonyl)-piperidin-4-yl]-piperazine-1-carboxylic acid 3-chloro-4,5-difluoro-benzyl ester] was greater than 6.00.
For `O=C(OCc1ccc(Cl)c(F)c1)N1CCN(C2CCN(C(=O)c3ccc4[nH]nnc4c3)CC2)CC1` [Compound 117, 4-[1-(1H-Benzotriazole-5-carbonyl)-piperidin-4-yl]-piperazine-1-carboxylic acid 4-chloro-3-fluoro-benzyl ester], the pIC50 is greater than 6.00.
The same measure for `O=C(OCc1ccc(OC(F)(F)F)c(F)c1)N1CCN(C2CCN(C(=O)c3ccc4[nH]nnc4c3)CC2)CC1` [Compound 118, 4-[1-(1H-Benzotriazole-5-carbonyl)-piperidin-4-yl]-piperazine-1-carboxylic acid 3-fluoro-4-trifluoromethoxy-benzyl ester]: greater than 6.00; for `Cc1ccc(COC(=O)N2CCN(C3CCN(C(=O)c4ccc5[nH]nnc5c4)CC3)CC2)cc1C(F)(F)F` [Compound 119, 4-[1-(1H-Benzotriazole-5-carbonyl)-piperidin-4-yl]-piperazine-1-carboxylic acid 4-methyl-3-trifluoromethyl-benzyl ester]: greater than 5.00.
Regarding `COc1c(C)cc(COC(=O)N2CCN(C3CCN(C(=O)c4ccc5[nH]nnc5c4)CC3)CC2)cc1C` [Compound 120, 4-[1-(1H-Benzotriazole-5-carbonyl)-piperidin-4-yl]-piperazine-1-carboxylic acid 4-methoxy-3,5-dimethyl-benzyl ester], the negative logarithm of the IC50 (pIC50) is greater than 5.00.
The value for `COc1cc(COC(=O)N2CCN(C3CCN(C(=O)c4ccc5[nH]nnc5c4)CC3)CC2)cc(OC)c1OC` [Compound 121, 4-[1-(1H-Benzotriazole-5-carbonyl)-piperidin-4-yl]-piperazine-1-carboxylic acid 3,4,5-trimethoxy-benzyl ester] was greater than 4.52.
As to `O=C(NCc1ccc(SC(F)(F)F)cc1)N1CCN(C2CCN(C(=O)c3ccc4[nH]nnc4c3)CC2)CC1` [Compound 122, 4-[1-(1H-Benzotriazole-5-carbonyl)-piperidin-4-yl]-piperazine-1-carboxylic acid 4-trifluoromethylsulfanyl-benzylamide], the negative logarithm of the IC50 (pIC50) is greater than 5.00.
Regarding `O=C(Cc1ccc(Cl)cc1)C(=O)N1CCN(C2CCN(C(=O)c3ccc4[nH]nnc4c3)CC2)CC1` [Compound 123, 1-{4-[1-(1H-Benzotriazole-5-carbonyl)-piperidin-4-yl]-piperazin-1-yl}-3-(4-chloro-phenyl)-propane-1,2-dione], the pIC50 is greater than 5.00.
The value for `O=C(c1ccc2[nH]nnc2c1)N1CCC(N2CCN(C(=O)c3ccccc3-c3ccc(C(F)(F)F)cc3)CC2)CC1` [Compound 124, (1H-Benzotriazol-5-yl)-{4-[4-(4′-trifluoromethyl-biphenyl-2-carbonyl)-piperazin-1-yl]-piperidin-1-yl}-methanone] was greater than 5.00; that for `O=C(c1ccc2[nH]nnc2c1)N1CCC(N2CCN(C(=O)c3ccccc3-c3cccc(C(F)(F)F)c3)CC2)CC1` [Compound 125, (1H-Benzotriazol-5-yl)-{4-[4-(3′-trifluoromethyl-biphenyl-2-carbonyl)-piperazin-1-yl]-piperidin-1-yl}-methanone] was greater than 5.00; that for `O=C(OCc1ccc(C(F)(F)F)cc1)N1CCN(C2CCN(C(=O)c3ccc4[nH]c(=O)sc4c3)CC2)CC1` [Compound 126, 4-[1-(2-Oxo-2,3-dihydro-benzothiazole-6-carbonyl)-piperidin-4-yl]-piperazine-1-carboxylic acid 4-trifluoromethyl-benzyl ester] was greater than 5.00.
The value for `O=C(OCc1ccc(C(F)(F)F)cc1)N1CCN(C2CCN(C(=O)c3ccc4[nH]c(=S)[nH]c4c3)CC2)CC1` [Compound 127, 4-[1-(2-Thioxo-2,3-dihydro-1H-benzoimidazole-5-carbonyl)-piperidin-4-yl]-piperazine-1-carboxylic acid 4-trifluoromethyl-benzyl ester] was greater than 5.00.
`O=C(OCc1cccc(OC(F)(F)F)c1)N1CCN(C2CCN(C(=O)c3ccc4[nH]nnc4c3)CC2)CC1` [Compound 128, 4-[1-(1H-Benzotriazole-5-carbonyl)-piperidin-4-yl]-piperazine-1-carboxylic acid 3-trifluoromethoxy-benzyl ester]: the pIC50 is greater than 6.00.
`O=C(CCc1cc(F)c(F)c(Cl)c1)N1CCN(C2CCN(C(=O)c3ccc4[nH]nnc4c3)CC2)CC1` [Compound 129, 1-{4-[1-(1H-Benzotriazole-5-carbonyl)-piperidin-4-yl]-piperazin-1-yl}-3-(3-chloro-4,5-difluoro-phenyl)-propan-1-one]: the negative logarithm of the IC50 (pIC50) was greater than 5.00.
With `Cc1c(Br)cc(CCC(=O)N2CCN(C3CCN(C(=O)c4ccc5[nH]nnc5c4)CC3)CC2)cc1Br` [Compound 130, 1-{4-[1-(1H-Benzotriazole-5-carbonyl)-piperidin-4-yl]-piperazin-1-yl}-3-(3,5-dibromo-4-methyl-phenyl)-propan-1-one], the pIC50 is greater than 5.00.
Consider `O=C(OCc1cn(-c2ccc(Cl)cc2)nn1)N1CCN(C2CCN(C(=O)c3ccc4[nH]nnc4c3)CC2)CC1` [Compound 131, 4-[1-(1H-Benzotriazole-5-carbonyl)-piperidin-4-yl]-piperazine-1-carboxylic acid 1-(4-chloro-phenyl)-1H-[1,2,3]triazol-4-ylmethyl ester], for which the pIC50 was greater than 4.52.

For orientation: pIC50 means the IC50 on a negative log10 scale, so that one unit is a factor of ten.
